In data set [1] the test system is platelet aggregation. Description: Antithrombotic activity: inhibition of collagen-induced platelet aggregation (Born and Cross method). The note with it: Homo sapiens, 10 min, platelet-rich plasma from healthy volunteers, 10 minutes incubation at 37° C. The format is cell-based. Here is the method: 2. Antithrombotic activity Method The thrombocyte aggregation is measured using the Born and Cross method (J. Physiol. 170:397 (1964)) in platelet-rich plasma taken from healthy volunteers. To inhibit coagulation the blood is mixed with 3.14% sodium citrate in a volume ratio of 1:10. Collagen-induced aggregation The pattern of the decrease in optical density of the platelet suspension is photometrically measured and recorded after the addition of the aggregation-triggering substance. The rate of aggregation is determined from the angle of inclination of the density curve. The point on the curve where there is maximum light transmittance is used to calculate the optical density. The amount of collagen used is as small as possible but sufficient to produce an irreversible reaction curve. Standard commercial collagen produced by Hormonchemie of Munich is used. Before the addition of the collagen the plasma is incubated for 10 minutes with the substance at 37° C. From the measurements obtained an EC50 is determined graphically, indicating a 50% change in the optical density in terms of the inhibition of aggregation. The Table which follows contains the results found: […]

Data set [2] addresses human thrombocytes. Description: Inhibition of binding of ^3 H-BIBU 52 to human thrombocytes (Fibrinogen-binding test). The conditions noted are these: ^3 H-BIBU 52 5 nM, human platelet-rich plasma 1:10 diluted, ambient temperature, 20 minutes. Here is the method: 1. Inhibition of binding of ^3 H-BIBU 52 to human thrombocytes: […] Case 5/1093-FL) and various concentrations of the substance to be tested. The free and bound ligand is separated by centrifuging and quantitatively determined by scintillation counting. The inhibition of ^3 H-BIBU 52 binding by the test substance is determined from the measurements obtained. In order to do this, donor blood is taken from an anticubital vein and anticoagulated with trisodium citrate (final concentration 13 mM). The blood is centrifuged for 10 minutes at 170 x g and the supernatant platelet-rich plasma (PRP) is removed. The remaining blood is sharply centrifuged once more in order to obtain plasma. The PRP is diluted 1:10 with autologous plasma. 750 μl are incubated with 50 μl of physiological saline solution, 100 μl of test substance solution, 50 μl of ^14 C-sucrose (3,700 Bq) and 50 μl of ^3 H-BIBU 52 (final concentration: 5 nM) at ambient temperature for 20 minutes. In order to measure the non-specific binding, 5 μl of BIBU 52 (final concentration: 30 μM) are used instead of the test substance. The samples are centrifuged for 20 seconds at 10,000 x g and the supernatant is poured off. 100 μl thereof are measured in order to determine the free ligand. The pellet is dissolved in 500 μl of 0.2N NaOH, 450 μl are mixed with 2 ml of scintillator and 25 μl of 5N HCl and measured. The residual plasma remaining in the pellet is determined from the ^14 C-content and the bound ligand is determined from the ^3 H-measurement. After the non-specific binding has been deducted, the pellet activity is plotted against the concentration of the test substance and the concentration for a 50% inhibition of binding is determined.

Data set [3] concerns mice. Description: Tolerability after intravenous administration to mice. The conditions noted are these: intravenous administration of 15 mg/kg, 3 animals. It is filed as in vivo.

Structures can show the parent of a compound that is named as a salt.

On to `N=C(N)c1ccc(N2CC(N3CCOCC3)=C(c3ccc(CCC(=O)O)cc3)C2=O)cc1` [2(3), 1-(4-amidinophenyl)-3-[4-(2-carboxy-ethyl)-phenyl]-4-morpholino-3-pyrrolin-2-one-hydrochloride], for which the EC50 – broadly, the concentration giving half of the maximal effect – in data set [1] was 730 nM. Moreover, in data set [2], the IC50 (in general, the point on the concentration scale where inhibition reaches its midpoint) amounted to 42 nM.

As for `N=C(N)c1ccc(N2CCC(c3ccc(CCC(=O)O)cc3)C2=O)cc1` (stereo not shown) [2(13), 1-(4-amidinophenyl)-3-[4-(2-carboxy-ethyl)-phenyl]-pyrrolidin-2-one-hydrochloride], in data set [1], a half-maximal effect (EC50) was put at 260 nM. The molecule further gave an IC50 in data set [2] of 110 nM.

`COC1=C(c2ccc(CCC(=O)O)cc2)C(=O)N(c2ccc(CN)cc2)C1` [2(55), 1-(4-aminomethyl-phenyl)-3-[4-(2-carboxy-ethyl)phenyl]-4-methoxy-3-pyrrolin-2-one-hydrochloride]: a half-maximal effect in data set [1] (EC50) was put at 330 nM. The 50% inhibitory concentration (IC50) in data set [2] amounted to 180 nM.

For `COC(=O)CCc1ccc(C2=C(OC)CN(c3ccc(CN)cc3)C2=O)cc1` [5(B), 1-(4-Aminomethyl-phenyl)-4-methoxy-3-[4-(2-methoxycarbonyl-ethyl)-phenyl]-3-pyrrolin-2-one], in data set [1], the EC50 stood at 380 nM. For the same molecule, the half-inhibitory concentration (IC50) in data set [2] was 8600 nM.

The molecule `COC1=C(c2ccc(CCC(=O)O)cc2)C(=O)N(c2ccc(C(=N)N)cc2)C1` [Example 2, -(4-Amidinophenyl)-3-[4-(2-carboxyethyl)-phenyl]-4-methoxy-3-pyrrolin-2one-hydrochloride] returned a concentration for a half-maximal effect (EC50) in data set [1] of 40 nM. The deaths entry in data set [3] is recorded as “none of the 3 animals tested died”. Further, the IC50 in data set [2] came out at 11 nM.

In the case of `CC1(c2ccc(CCC(=O)O)cc2)C(=O)CN(c2ccc(C(=N)N)cc2)C1=O` (stereo not shown) [Example 13, 1-(4-Amidinophenyl)-3-[4-(2-carboxy-ethyl)-phenyl]-3-methyl-pyrrolidin-2,4-dione-hydrochloride], the response in data set [1] was half-maximal at 500 nM (EC50). For the same molecule, in data set [2], the IC50 was found to be 360 nM.

(Values after patent US5489693A, “Cyclic imino derivatives, pharmaceutical compositions containing these compounds and processes preparing them” (priority 1992, dated 1996).)
